In patent publication US20250115581A1, “SUBSTITUTED PIPERIDINES AS CK1A DEGRADERS” (Monte Rosa Therapeutics, Inc., priority 2022, published 2025) one finds IC50 and DC50 data, which are given here for 17 molecules.

In one assay the target is CRBN/DDB1 (Homo sapiens, UniProt Q96SW2). The assay can be described thus: HTRF binding assay (displacement of Cy5-thalidomide probe from CRBN/DDB1). Particulars: CRBN/DDB1 2.5 nM, Cy5-Thalidomide 100 nM, 30 min; geometric mean; read-out: HTRF_Thali_Disp_DR_geo_IC50. The text has this: Binding of test compounds to CRBN/DDB1 was monitored in an HTRF assay using 1-[5-({2-[2-(2-{[2-(2,6-dioxopiperidin-3-yl)-1,3-dioxo-2,3-dihydro-1H-isoindol-4-yl]oxy}acetamido)ethoxy]ethyl}carbamoyl)pentyl]-3,3-dimethyl-2-[(1E,3E)-5-[(2E)-1,3,3-trimethyl-5-sulfo-2,3-dihydro-1H-indol-2-ylidene]penta-1,3-dien-1-yl]-3H-indol-1-ium-5-sulfonate as a fluorescent probe. In this assay, compounds displace the fluorescently labeled thalidomide-based probe bound to CRBN and fluorescence is monitored with increasing compound concentration. Assays were conducted in Greiner white 384 well HiBase plates (Cat. No 784075-25) in 10 μL total volume. A one pot detection solution of CRBN/DDB1 (2.5 nM), anti-His Terbium Cryptate Gold (1×, PerkinElmer Cat. #: 61HI2TLB), and Cy5-Thalidomide (100 nM, Tenova Cat.: T52461) was prepared in 20 mM HEPES, 20 mM NaCl, 0.2 mM TCEP, 0.2 mM EDTA, and 0.005% Tween20 was dispensed to each assay plate. Test compounds were stored in dry, ambient temperatures at 10 mM. A 10-point, 1:3 dilution series was prepared from 10 mM stock concentrations in Echo-compatible LDV plates. 10 nL of each compound dilution series was dispensed into assays wells using an Echo 650 (Labcyte inc. USA). 10 nL of 10 mM lenalidomide (Selleckchem Cat no. S1029) was transferred into the active-control wells for the assay and 10 nL of DMSO was transferred into the negative control wells. The assay was then allowed to incubate for 30 min at ambient temperature after transferring the test compounds. Plate measurements were taken on a Pherastar FSX (BMG Labtech, Germany) using the HTRF Red filter (Ex. 337 nm, em1: 620 nm, em2: 665 nm) (Flashes: 50, Integration time: 60-400 μs, Z-height: 10 mm, Ratio-multiplier: 10,000). Analysis, HTRF ratio and IC50 values were derived using KNIME analytics (KNIME Zurich) transformation and fitting within Collaborative Drug Discovery (Collaborative Drug Discovery USA) using a 4-parameter logistic fit. HTRF ratio calculation was performed using the following formula: […]
where em665 nm represents the measured emission at 665 nm upon excitation at 337 nm and em620 nm the measured emission at 620 nm upon excitation at 337 nm. The 4 parameter logistic fitting model was performed using the following formula: […]
where Y represents the HTRF ratio response (as defined previously), X the compound concentration in μM, Ymin the minimum response plateau, Ymax the maximum response plateau, IC50 the concentration of […] that gives a response half way between Ymin and Ymax and HillSlope the steepness of the family of curves. No fitting model constraints was applied on Ymin, or Ymax whilst IC50>0 and −0.5>HillSlope>−3 Cheng-Prusoff transformation
Ki values were derived from the geometric mean of the IC50 values using the Cheng-Prusoff transformation:
where [L] represents the concentration of fluorescent probe in […], Kd the affinity (binding constant) of the fluorescent probe in units of μM and IC50 the concentration of agonist that gives a response halfway between Ymin and Ymax (as described in 1.2.1)
Analysis and IC50 values were derived using KNIME analytics (KNIME, Zurich) transformation and fitting within Collaborative Drug Discovery (Collaborative Drug Discovery, USA) as described in 1.2.1. Ki values were derived from the geometric mean of the IC50 values using the Cheng-Prusoff transformation as described in 2.2.2. Data was visualized in GraphPad Prism 8.1.2 (GraphPad, USA) and reported as mean and standard deviation. Microsoft Office Excel 2012 (Redmond, WA) was used for calculation of mean and standard deviation.
IC50 data are reported in Table 3 for compounds in Table 1. In Table 3 below, According to the code, A represents a IC50 value of ≤0.1 μM, B represents a IC50 value >0.1 μM and ≤1 μM, C represents an IC50 value >1 μM.
Background: Time-resolved FRET reads energy transfer from a long-lived donor to a nearby acceptor.

In the next assay the target is T1, CK1α (Homo sapiens, UniProt P48729+Q96SW2).
T1 construct: HEK293 clonal lines with CRISPR KI HiBiT tag on CSNK1A1; host or cells: HEK293 clonal line, CRISPR knock-in HiBiT at the CSNK1A1 locus, stably expressing LgBiT
The assay can be described thus: CK1α NanoBit Assay (HiBiT-tagged CSNK1A1 in HEK293 cells, luminescence). Particulars: 24 h. It counts as cell-based. The method, then: HEK293 clonal lines with CRISPR KI HiBiT tag on CSNK1A1 and stably expressing LgBiT protein were obtained from Promega (Madison, WI). Cells were plated at 5000 cells per well using Multiflo (BioTek) in 384-well white solid bottom plates (Corning, 3570BC) in 25 μl volume in DMEM media (DMEM, high glucose, HEPES, no phenol red (ThermoFisher Scientific, 21063029)) containing 10% FBS (Corning, 35-075-CV), 1% Penicillin/Streptomycin ((ThermoFisher Scientific, 15140-122), and 0.2% Endurazine (Nano-Glo Endurazine Live Cell Substrate (Promega, N2571)). Cells were incubated for 16 hours at 37° C., 5% CO2. Depending on experiment 25 or 75 nL of a compound at 10 mM were added into the plate using an Echo® 650 liquid handler (Labcyte) to achieve final concentration of 10 or 30 μM in wells. Cells were incubated at 37° C., 5% CO2 for 24 hours and then signal was read on a Pherastar FSX using “LUM plus” optic module.
Data analysis was performed in Scinamic (Scinamic, Cambridge, MA). Luminescence response (R) was calculated by the formula: response=100*(S−N)/(P−N) where S is the signal of the well, N and P the mean negative and positive control values respectively of the same plate. The luminescence response was then fitted in Scinamic using a 3-parameter agonist logistic fit (hillslope=1, EC50>0, top/bottom unconstrained).
DC50 data are reported in Table 2 for compounds in Table 1. In Table 2 below, According to the code, A represents a DC50 value of ≤0.1 μM, B represents a DC50 value >0.1 μM and ≤1 μM, C represents an DC50 value >1 μM.
(With HiBiT, luminescence reflects the tagged protein that the partner subunit can reach.)

T1 sequence (P48729 whole entry): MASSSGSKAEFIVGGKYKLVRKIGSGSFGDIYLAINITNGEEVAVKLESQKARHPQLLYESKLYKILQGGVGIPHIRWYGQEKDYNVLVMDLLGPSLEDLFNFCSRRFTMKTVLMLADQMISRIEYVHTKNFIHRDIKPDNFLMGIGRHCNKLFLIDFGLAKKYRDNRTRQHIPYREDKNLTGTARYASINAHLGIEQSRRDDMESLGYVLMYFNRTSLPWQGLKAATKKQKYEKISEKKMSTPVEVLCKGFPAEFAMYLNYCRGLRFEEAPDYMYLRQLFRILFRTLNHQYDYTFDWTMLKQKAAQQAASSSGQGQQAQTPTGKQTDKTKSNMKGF
T1 sequence (Q96SW2 whole entry): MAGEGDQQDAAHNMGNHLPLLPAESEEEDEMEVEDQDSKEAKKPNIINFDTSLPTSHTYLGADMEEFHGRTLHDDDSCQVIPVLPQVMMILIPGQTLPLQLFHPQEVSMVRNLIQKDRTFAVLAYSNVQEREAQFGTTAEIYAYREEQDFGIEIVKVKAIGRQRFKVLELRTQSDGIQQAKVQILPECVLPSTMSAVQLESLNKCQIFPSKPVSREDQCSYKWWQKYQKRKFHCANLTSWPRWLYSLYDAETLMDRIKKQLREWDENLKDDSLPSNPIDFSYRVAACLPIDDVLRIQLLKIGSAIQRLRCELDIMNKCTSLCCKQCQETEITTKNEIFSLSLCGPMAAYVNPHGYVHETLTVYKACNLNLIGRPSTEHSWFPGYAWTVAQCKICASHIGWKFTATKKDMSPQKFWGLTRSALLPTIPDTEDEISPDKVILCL
T1 sequence (Q16531 whole entry partner): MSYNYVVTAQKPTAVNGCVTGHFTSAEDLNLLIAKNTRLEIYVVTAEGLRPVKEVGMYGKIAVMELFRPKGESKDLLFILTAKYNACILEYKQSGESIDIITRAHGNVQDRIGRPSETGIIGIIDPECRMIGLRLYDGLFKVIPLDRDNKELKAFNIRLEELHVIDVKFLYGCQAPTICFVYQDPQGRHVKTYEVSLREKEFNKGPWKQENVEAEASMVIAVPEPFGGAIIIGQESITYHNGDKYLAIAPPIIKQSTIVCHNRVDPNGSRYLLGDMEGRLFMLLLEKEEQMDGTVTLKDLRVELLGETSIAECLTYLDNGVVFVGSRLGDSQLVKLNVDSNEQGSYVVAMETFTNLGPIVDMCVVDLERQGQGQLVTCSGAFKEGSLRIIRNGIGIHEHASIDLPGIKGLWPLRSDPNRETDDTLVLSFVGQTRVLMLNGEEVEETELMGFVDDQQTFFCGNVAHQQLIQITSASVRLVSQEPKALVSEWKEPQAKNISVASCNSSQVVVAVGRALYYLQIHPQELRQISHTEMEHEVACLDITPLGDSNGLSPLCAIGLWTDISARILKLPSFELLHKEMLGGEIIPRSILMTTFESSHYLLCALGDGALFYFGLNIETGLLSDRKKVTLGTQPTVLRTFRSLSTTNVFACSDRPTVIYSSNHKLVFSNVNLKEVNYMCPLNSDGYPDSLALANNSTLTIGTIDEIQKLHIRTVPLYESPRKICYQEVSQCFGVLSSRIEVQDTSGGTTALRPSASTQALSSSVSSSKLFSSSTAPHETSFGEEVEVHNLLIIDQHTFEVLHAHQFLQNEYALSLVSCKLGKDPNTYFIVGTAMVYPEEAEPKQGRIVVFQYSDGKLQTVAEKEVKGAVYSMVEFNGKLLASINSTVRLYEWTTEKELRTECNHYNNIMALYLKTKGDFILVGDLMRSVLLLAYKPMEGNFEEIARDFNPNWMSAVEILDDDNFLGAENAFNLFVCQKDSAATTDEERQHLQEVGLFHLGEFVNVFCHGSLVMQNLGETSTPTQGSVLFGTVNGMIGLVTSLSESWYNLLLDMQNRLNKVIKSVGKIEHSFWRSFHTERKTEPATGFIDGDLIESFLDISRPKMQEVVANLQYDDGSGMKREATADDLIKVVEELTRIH
Chain of CRBN/DDB1 (Q96SW2 whole entry): as the sequence (Q96SW2 whole entry) above
Chain of CRBN/DDB1 (Q16531 whole entry partner): as the sequence (Q16531 whole entry partner) above

For `O=C1CCC(N2Cc3cc(N4CCN(c5ccc(C6CCOC6)cc5)C4=O)ccc3C2=O)C(=O)N1` (stereo not shown) [Compound 144, 3-(1-oxo-5-(2-oxo-3-(4-(tetrahydrofuran-3-yl)phenyl)imidazolidin-1-yl)isoindolin-2-yl)piperidine-2,6-dione], the IC50 at CRBN/DDB1 is 100 to 1000 nM. Further, the DC50 on CK1α was no more than 0.1 µM.
Consider `Cc1ccc(N2C(=O)N(c3ccc4c(c3)CN(C3CCC(=O)NC3=O)C4=O)C[C@@H]2C)cc1` (stereo partly drawn) [Compound 145, 3-(5-((S)-4-methyl-2-oxo-3-(p-tolyl)imidazolidin-1-yl)-1-oxoisoindolin-2-yl)piperidine-2,6-dione], for which, at CRBN/DDB1, the IC50 is 100 to 1000 nM. The DC50 at CK1α was no more than 0.1 µM.
Consider `O=C1CCC(N2Cc3cc(N4CCN(c5ccc(C6COC6)cc5)C4=O)ccc3C2=O)C(=O)N1` (stereo not shown) [Compound 146, 3-(5-(3-(4-(oxetan-3-yl)phenyl)-2-oxoimidazolidin-1-yl)-1-oxoisoindolin-2-yl)piperidine-2,6-dione], for which the IC50 on CRBN/DDB1 fell in the range of 100 to 1000 nM. In addition, the DC50 on CK1α is no more than 0.1 µM.
Take `COCc1cccc(N2C(=O)N(c3ccc4c(c3)CN(C3CCC(=O)NC3=O)C4=O)C[C@H]2C)c1` (stereo partly drawn) [Compound 149, 3-(5-((R)-3-(3-(methoxymethyl)phenyl)-4-methyl-2-oxoimidazolidin-1-yl)-1-oxoisoindolin-2-yl)piperidine-2,6-dione]: the IC50 on CRBN/DDB1 lay in the range of 100 to 1000 nM. Further, the DC50 on CK1α was no more than 0.1 µM.
In the case of `Cc1ccc(N2CCN(c3ccc4c(c3)CN(C3CCC(=O)NC3=O)C4=O)C2=O)c(C)c1` (stereo not shown) [Compound 150, 3-(5-(3-(2,4-dimethylphenyl)-2-oxoimidazolidin-1-yl)-1-oxoisoindolin-2-yl)piperidine-2,6-dione], the IC50 on CRBN/DDB1 fell in the range of 100 to 1000 nM. For the same molecule, the DC50 at CK1α is no more than 0.1 µM.
Taken in the same sequence, the figures for `Cc1ccc(N2C(=O)N(c3ccc4c(c3)CN(C3CCC(=O)NC3=O)C4=O)C[C@H]2C)cn1` (stereo partly drawn) [Compound 151, 3-(5-((R)-4-methyl-3-(6-methylpyridin-3-yl)-2-oxoimidazolidin-1-yl)-1-oxoisoindolin-2-yl)piperidine-2,6-dione] were 100 to 1000 nM and no more than 0.1 µM.
For `O=C1CCC(N2Cc3cc(N4CC5(CC5)N(c5ccccc5)C4=O)ccc3C2=O)C(=O)N1` (stereo not shown) [Compound 152, 3-(1-oxo-5-(5-oxo-4-phenyl-4,6-diazaspiro[2.4]heptan-6-yl)isoindolin-2-yl)piperidine-2,6-dione] the same measures were 100 to 1000 nM and no more than 0.1 µM.
With `O=C1CCC(N2Cc3cc(N4CCN(C5CC6(CCC6)C5)C4=O)ccc3C2=O)C(=O)N1` (stereo not shown) [Compound 153, 3-(1-oxo-5-(2-oxo-3-(spiro[3.3]heptan-2-yl)imidazolidin-1-yl)isoindolin-2-yl)piperidine-2,6-dione], the IC50 on CRBN/DDB1 was 100 to 1000 nM. The molecule also came in with a DC50 on CK1α of 0.1 to 1 µM.
For the molecule `CC(c1ccccc1)N1CCN(c2ccc3c(c2)CN(C2CCC(=O)NC2=O)C3=O)C1=O` (stereo not shown) [Compound 154, 3-(1-oxo-5-(2-oxo-3-(1-phenylethyl)imidazolidin-1-yl)isoindolin-2-yl)piperidine-2,6-dione], the IC50 at CRBN/DDB1 was in the range of 100 to 1000 nM. This molecule came in with a DC50 at CK1α of 0.1 to 1 µM.
As for `Cc1ccc(N2C(=O)N(c3ccc4c(c3)CN(C3CCC(=O)NC3=O)C4=O)C[C@@H]2C)cn1` (stereo partly drawn) [Compound 155, 3-(5-((S)-4-methyl-3-(6-methylpyridin-3-yl)-2-oxoimidazolidin-1-yl)-1-oxoisoindolin-2-yl)piperidine-2,6-dione], on CRBN/DDB1, the IC50 lay in the range of 100 to 1000 nM. Also, on CK1α, the DC50 lay in the range of 0.1 to 1 µM.
Taken in the same sequence, the figures for `Cc1ccc(N2C(=O)N(c3ccc4c(c3)CN(C3CCC(=O)NC3=O)C4=O)C[C@H]2C)nc1` (stereo partly drawn) [Compound 156, 3-(5-((R)-4-methyl-3-(5-methylpyridin-2-yl)-2-oxoimidazolidin-1-yl)-1-oxoisoindolin-2-yl)piperidine-2,6-dione] were 100 to 1000 nM and 0.1 to 1 µM.
As to `COC[C@H]1CN(c2ccc3c(c2)CN(C2CCC(=O)NC2=O)C3=O)C(=O)N1c1ccc(C)cc1` (stereo partly drawn) [Compound 157, 3-(5-((R)-4-(methoxymethyl)-2-oxo-3-(p-tolyl)imidazolidin-1-yl)-1-oxoisoindolin-2-yl)piperidine-2,6-dione], the IC50 at CRBN/DDB1 was in the range of 100 to 1000 nM. The molecule further came in with a DC50 at CK1α of 0.1 to 1 µM.
Consider `Cc1ccc(N2C(=O)N(c3ccc4c(c3)CN(C3CCC(=O)NC3=O)C4=O)C[C@@H]2C(F)F)cc1` (stereo partly drawn) [Compound 158, 3-(5-((R)-4-(difluoromethyl)-2-oxo-3-(p-tolyl)imidazolidin-1-yl)-1-oxoisoindolin-2-yl)piperidine-2,6-dione], for which, on CRBN/DDB1, the IC50 is 100 to 1000 nM. On CK1α, this molecule displayed a DC50 of 0.1 to 1 µM.
As for `O=C1CCC(N2Cc3cc(N4CCN(C5CCC5)C4=O)ccc3C2=O)C(=O)N1` (stereo not shown) [Compound 159, 3-(5-(3-cyclobutyl-2-oxoimidazolidin-1-yl)-1-oxoisoindolin-2-yl)piperidine-2,6-dione], the IC50 on CRBN/DDB1 is greater than 1000 nM. At CK1α, this molecule returned a DC50 of 0.1 to 1 µM.
As to `O=C1CCC(N2Cc3cc(N4CCN(C5C6CCCC65)C4=O)ccc3C2=O)C(=O)N1` (stereo not shown) [Compound 160, 3-(5-(3-(bicyclo[3.1.0]hexan-6-yl)-2-oxoimidazolidin-1-yl)-1-oxoisoindolin-2-yl)piperidine-2,6-dione], the IC50 at CRBN/DDB1 lay within 100 to 1000 nM. Further, the DC50 at CK1α was 0.1 to 1 µM.
Regarding `C[C@@H]1CN(c2ccc3c(c2)CN(C2CCC(=O)NC2=O)C3=O)C(=O)N1C1CCOC1` (stereo partly drawn) [Compound 161, 3-(5-((4R)-4-methyl-2-oxo-3-(tetrahydrofuran-3-yl)imidazolidin-1-yl)-1-oxoisoindolin-2-yl)piperidine-2,6-dione], the IC50 on CRBN/DDB1 is 100 to 1000 nM. At CK1α, this molecule yielded a DC50 of 0.1 to 1 µM.
For the molecule `O=C1CCC(N2Cc3cc(N4CCN(C5CCOC5)C4=O)ccc3C2=O)C(=O)N1` (stereo not shown) [Compound 162, 3-(1-oxo-5-(2-oxo-3-(tetrahydrofuran-3-yl)imidazolidin-1-yl)isoindolin-2-yl)piperidine-2,6-dione], the IC50 on CRBN/DDB1 was 100 to 1000 nM. At CK1α, this molecule had a DC50 of 0.1 to 1 µM.
